According to US11078496B2, “System for F-box hormone receptor regulated protein expression in mammalian cells” (ICAHN SCHOOL OF MEDICINE AT MOUNT SINAI, priority 2016, dated 2021):

Biological target: T1, AID^47-NANOG (A-NANOG) (UniProt P93830+Q7XVM8)
T1 construct: (encoding NP_001052659); 47-amino acid segment that corresponds to amino acids 63-109 of A. thaliana IAA17; expressed in transfected cells; host or cells: CCE mESCs (lentiviral pRAIDRS)
Assay: Auxin-dependent depletion of A-NANOG in mESCs (western blot)
Type: cell-based, mouse
Experimental: FIGS. 3A-3D illustrate an auxin-degradable NANOG rescue system in mESCs. CCE mESCs were infected with pRAIDRS AID^47-NANOG (A-NANOG) or GFP-AID^47 (“GFP-A”) and selected clones with ESC morphology were analyzed for the effect of auxin (“IAA”) treatment. FIG. 3A is a western blot analysis depicting endogenous NANOG (*) and A-NANOG (**) in parental mESCs, and in the indicated clones. β-Actin serves as a loading control. Experiment was repeated three times and a representative blot is presented. FIG. 3B are images of mESC clones plated at low density, grown in the presence of ethanol (“Con”) or auxin (“IAA”) for 3-4 days and assayed for AP activity. GFP-A mESCs reached the desired confluency a day earlier and therefore the images were taken on different days. FIG. 3C are bright-field images showing representative morphology of A-NANOG mESCs following 3 days of ethanol (“Con”) or auxin (“IAA”) treatment (upper part) and merged bright-field and GFP fluorescence images of ethanol or auxin-treated GFP-A mESCs (lower part). Scale bars, 100 μm. […] All cells were subjected to the same concentration of ethanol for the duration of experiment. Quantitative real-time PCR analysis was performed for selected self-renewal and differentiation markers, and normalized expression levels are represented as a heatmap. […] See also FIGS. 4A-4F and FIG. 15. […]

T1 sequence (Q7XVM8 whole entry, the tested form may be a part): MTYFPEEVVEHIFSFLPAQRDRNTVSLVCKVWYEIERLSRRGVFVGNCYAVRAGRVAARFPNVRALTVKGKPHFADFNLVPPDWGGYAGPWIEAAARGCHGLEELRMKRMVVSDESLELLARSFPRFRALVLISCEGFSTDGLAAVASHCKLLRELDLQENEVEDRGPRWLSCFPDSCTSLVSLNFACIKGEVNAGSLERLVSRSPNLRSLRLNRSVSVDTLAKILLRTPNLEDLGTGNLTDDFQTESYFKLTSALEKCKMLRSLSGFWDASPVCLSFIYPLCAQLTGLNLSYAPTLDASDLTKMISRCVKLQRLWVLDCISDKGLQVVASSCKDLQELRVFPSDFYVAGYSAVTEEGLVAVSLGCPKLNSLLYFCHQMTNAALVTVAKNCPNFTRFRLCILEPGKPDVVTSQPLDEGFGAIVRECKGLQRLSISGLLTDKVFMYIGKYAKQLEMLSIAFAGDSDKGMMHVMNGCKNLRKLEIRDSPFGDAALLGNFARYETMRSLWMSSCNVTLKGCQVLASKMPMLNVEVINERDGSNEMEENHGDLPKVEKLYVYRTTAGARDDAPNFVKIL
T1 sequence (P93830 63-109): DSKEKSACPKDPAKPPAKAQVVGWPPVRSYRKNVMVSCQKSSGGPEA

In the case of `O=C(O)Cc1c[nH]c2ccccc12` [auxin, indole-3-acetic acid], the “depletion of A-NANOG” value (A-NANOG #2 mESCs, 50 μM auxin, 30 minutes, western blot) is reported as “complete depletion” and the “time for >95% degradation of NANOG” value (pRAIDRS system, auxin-dependent protein depletion) is reported as 20 to 30 min.
